In ChEMBL document CHEMBL1201862, “PubChem BioAssay data set” (2004):
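Following 48 hours of exposure in 96-well plates, responses at five concentrations were used to interpolate endpoints linearly. Abbreviation: GI50, concentration required for 50% inhibition of growth.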 Active and inactive are the calls of the source. Cut-off read from the data, not from the text of the source: active = GI50 up to about 1.1 µM and inactive = higher.

Tests used:
Test in all cases: inhibition of tumour cell growth, NCI panel, 48 h
HOP-92 = tested on: HOP-92
SF-539 = tested on: SF-539
OVCAR-4 = tested on: OVCAR-4
DU-145 = tested on: DU-145
SK-MEL-28 = tested on: SK-MEL-28
COLO 205 = tested on: COLO 205
NCI/ADR-RES = tested on: NCI/ADR-RES
SK-OV-3 = tested on: SK-OV-3
NCI-H226 = tested on: NCI-H226
SK-MEL-2 = tested on: SK-MEL-2
SNB-75 = tested on: SNB-75
HCT-116 = tested on: HCT-116
SF-295 = tested on: SF-295
CCRF-CEM = tested on: CCRF-CEM
OVCAR-8 = tested on: OVCAR-8
SW-620 = tested on: SW-620
SK-MEL-5 = tested on: SK-MEL-5
T47D = tested on: T47D
SN12C = tested on: SN12C
SR = tested on: SR

Measured: GI50

Cc1c2c(c(C)n1-c1ccccc1)C(=O)N(CCSC(=N)N)C2=O
inactive: HOP-92 > 100 µM | SF-539 > 100 µM | OVCAR-4 9.29 µM | DU-145 > 100 µM | SK-MEL-28 > 100 µM | COLO 205 > 100 µM | NCI/ADR-RES 59.6 µM | SK-OV-3 > 100 µM | NCI-H226 > 100 µM | SK-MEL-2 31.4 µM | SNB-75 15.6 µM | HCT-116 > 100 µM | SF-295 22.6 µM | CCRF-CEM > 100 µM | OVCAR-8 62.2 µM | SW-620 > 100 µM | SK-MEL-5 1.96 µM | T47D 1.9 µM | SN12C > 100 µM

CC1=C(C#N)C(=C(C#N)C#N)OC1(C)Cc1ccccc1 (stereo not given)
inactive: HOP-92 19.7 µM | SF-539 64.7 µM | OVCAR-4 21.9 µM | DU-145 37 µM | SK-MEL-28 49.9 µM | COLO 205 21 µM | NCI/ADR-RES 31.9 µM | SK-OV-3 > 100 µM | NCI-H226 31.2 µM | SK-MEL-2 36.7 µM | SNB-75 > 100 µM | HCT-116 36.7 µM | SF-295 67.3 µM | OVCAR-8 65.5 µM | SW-620 42.9 µM | SK-MEL-5 67.8 µM | T47D 29.9 µM | SN12C 82.6 µM

CCn1c(-c2ccccc2)nc2c1C(=O)c1ccccc1C2=O
inactive: HOP-92 24.2 µM | SF-539 32.4 µM | OVCAR-4 12.5 µM | DU-145 28.1 µM | SK-MEL-28 56 µM | COLO 205 14.1 µM | NCI/ADR-RES 13.3 µM | SK-OV-3 20.6 µM | NCI-H226 24.4 µM | HCT-116 21.7 µM | SF-295 30.1 µM | CCRF-CEM 18.4 µM | OVCAR-8 14 µM | SW-620 32.1 µM | SK-MEL-5 11.2 µM | T47D 2.22 µM | SN12C 20.7 µM | SR 22.3 µM

O=C(c1ccccc1)c1ccc(N2C(=O)/C(=C/c3cccc(Oc4ccccc4)c3)N=C2c2ccccc2)c(N2C(=O)/C(=C/c3cccc(Oc4ccccc4)c3)N=C2c2ccccc2)c1
inactive: HOP-92 88.5 µM | OVCAR-4 35.3 µM | DU-145 46.5 µM | SK-MEL-28 51.3 µM | COLO 205 18 µM | NCI/ADR-RES 18.5 µM | SK-OV-3 42.9 µM | SK-MEL-2 17.7 µM | SNB-75 23.9 µM | HCT-116 36.1 µM | SF-295 25 µM | CCRF-CEM 8.32 µM | OVCAR-8 32.1 µM | SW-620 30.7 µM | SK-MEL-5 13.3 µM | T47D 30.7 µM | SN12C 92.3 µM

CCC(CS(=O)(=O)O)[N+](=O)[O-] (stereo not given)
inactive: SF-539 > 100 µM | OVCAR-4 > 100 µM | DU-145 > 100 µM | SK-MEL-28 > 100 µM | COLO 205 > 100 µM | NCI/ADR-RES > 100 µM | SK-OV-3 > 100 µM | NCI-H226 > 100 µM | SK-MEL-2 > 100 µM | SNB-75 > 100 µM | HCT-116 > 100 µM | SF-295 > 100 µM | CCRF-CEM > 100 µM | OVCAR-8 > 100 µM | SW-620 > 100 µM | SK-MEL-5 > 100 µM | T47D > 100 µM | SN12C > 100 µM
